# Assay results as given in patent US11591336B2 (Relay Therapeutics, Inc., priority 2017, dated 2023).
# Target: SHP2 (Homo sapiens (Human), UniProt Q06124)
# Assay: SHP2 Allosteric Inhibition Assay (DiFMUP prompt fluorescence)
# Format: biochemical
# Conditions: 0.25 nM SHP2 activated with 0.5 μM peptide IRS1_pY1172(dPEG8)pY1222; substrate DiFMUP 100 μM; 25° C.
row,IC50,SMILES
1,< 1000 nM,C[C@@H]1OCC2(CCN(c3cnc4c(N5CCCc6nc(C7=CCOC7)ccc65)n[nH]c4n3)CC2)[C@@H]1N [Compound 336]
2,< 1000 nM,C[C@@H]1OCC2(CCN(c3cnc4c(N5CCc6ccc(-c7cnn(C)c7)cc6C5)n[nH]c4n3)CC2)[C@@H]1N [Compound 337]
3,< 1000 nM,C[C@@H]1OCC2(CCN(c3cnc4c(N5CCc6cc(-c7cnn(C)c7)ccc6C5)n[nH]c4n3)CC2)[C@@H]1N [Compound 338]
4,< 1000 nM,"N[C@@H]1CCC12CCN(c1cnc3c(N4CCCc5ncccc54)n[nH]c3n1)CC2 [Compound 339, (1R)-7-[3-(1,2,3,4-tetrahydro-1,5-naphthyridin-1-yl)-1H-pyrazolo[3,4-b]pyrazin-6-yl]-7-azaspiro[3.5]nonan-1-amine]"
5,< 1000 nM,"N[C@H]1CCC12CCN(c1cnc3c(N4CCCc5ncccc54)n[nH]c3n1)CC2 [Compound 340, (1S)-7-[3-(1,2,3,4-tetrahydro-1,5-naphthyridin-1-yl)-1H-pyrazolo[3,4-b]pyrazin-6-yl]-7-azaspiro[3.5]nonan-1-amine]"
6,< 1000 nM,C[C@@H]1OCC2(CCN(c3cnc4c(N5CCS(=O)(=O)c6ccccc65)n[nH]c4n3)CC2)[C@@H]1N [Compound 341]
7,< 1000 nM,CNC(=O)N1CCN(c2n[nH]c3nc(N4CCC5(CC4)CO[C@@H](C)[C@H]5N)cnc23)c2ccccc21 [Compound 342]
8,< 1000 nM,"C[C@@H]1OCC2(CCN(c3cnc4c(N5CCCc6c(NS(C)(=O)=O)cccc65)n[nH]c4n3)CC2)[C@@H]1N [Compound 343, N-(1-{6-[(3S,4S)-4-amino-3-methyl-2-oxa-8-azaspiro[4.5]decan-8-yl]-1H-pyrazolo[3,4-b]pyrazin-3-yl}-1,2,3,4-tetrahydroquinolin-5-yl)methanesulfonamide]"
9,< 1000 nM,"C[C@@H]1OCC2(CCN(c3cnc4c(N5CCCc6c5cccc6N(S(C)(=O)=O)S(C)(=O)=O)n[nH]c4n3)CC2)[C@@H]1N [Compound 344, N-(1-{6-[(3S,4S)-4-amino-3-methyl-2-oxa-8-azaspiro[4.5]decan-8-yl]-1H-pyrazolo[3,4-b]pyrazin-3-yl}-1,2,3,4-tetrahydroquinolin-5-yl)-N-methanesulfonylmethanesulfonamide]"
10,< 1000 nM,Cc1ccc2c(c1S(C)(=O)=O)CCCN2c1n[nH]c2nc(N3CCC4(CC3)CO[C@@H](C)[C@H]4N)cnc12 [Compound 345]
11,< 1000 nM,"C[C@@H]1CCN(c2n[nH]c3nc(N4CCC5(CC4)CO[C@@H](C)[C@H]5N)cnc23)c2ccc(C(=O)N(C)C)nc21 [Compound 347, (8R)-5-{6-[(3S,4S)-4-amino-3-methyl-2-oxa-8-azaspiro[4.5]decan-8-yl]-1H-pyrazolo[3,4-b]pyrazin-3-yl}-N,N,8-trimethyl-5,6,7,8-tetrahydro-1,5-naphthyridine-2-carboxamide]"
12,< 1000 nM,C[C@@H]1OCC2(CCN(c3cnc4c(N5CCCc6nc(-c7cccnn7)ccc65)n[nH]c4n3)CC2)[C@@H]1N [Compound 348]
13,< 1000 nM,C[C@@H]1OCC2(CCN(c3cnc4c(N5CCCc6nc(-c7cnccn7)ccc65)n[nH]c4n3)CC2)[C@@H]1N [Compound 350]
14,< 1000 nM,"C[C@@H]1OCC2(CCN(c3cnc4c(N5CCCc6nc(-c7cnn(CCO)c7)ccc65)n[nH]c4n3)CC2)[C@@H]1N [Compound 351, 2-[4-(5-{6-[(3S,4S)-4-amino-3-methyl-2-oxa-8-azaspiro[4.5]decan-8-yl]-1H-pyrazolo[3,4-b]pyrazin-3-yl}-5,6,7,8-tetrahydro-1,5-naphthyridin-2-yl)-1H-pyrazol-1-yl]ethan-1-ol]"
15,< 1000 nM,C[C@@H]1OCC2(CCN(c3cnc4c(N5CCCc6nc(CC#N)ccc65)n[nH]c4n3)CC2)[C@@H]1N [Compound 352]
16,< 1000 nM,Cc1nnc(-c2ccc3c(c2)[C@@H](C)CCN3c2n[nH]c3nc(N4CCC5(CC4)CO[C@@H](C)[C@H]5N)cnc23)o1 [Compound 353]
17,< 1000 nM,Cc1ccc2c(c1)CCCN2c1n[nH]c2nc(N3CCC4(CC3)CO[C@@H](C)[C@H]4N)cnc12 [Compound 354]
18,< 1000 nM,C[C@@H]1OCC2(CCN(c3cnc4c(N5CCCc6ccccc65)n[nH]c4n3)CC2)[C@@H]1N [Compound 355]
19,< 1000 nM,C[C@@H]1OCC2(CCN(c3cnc4c(N5CCCc6nc(-c7cncs7)ccc65)n[nH]c4n3)CC2)[C@@H]1N [Compound 356]
20,< 1000 nM,CC1c2ccccc2CCN1c1n[nH]c2nc(N3CCC4(CC3)CO[C@@H](C)[C@H]4N)cnc12 (stereo partly drawn) [Compound 357]
21,≥ 10000 nM,C[C@@H]1OCC2(CCN(c3cnc4c(N5CCc6cccc(-c7cnn(C)c7)c6C5)n[nH]c4n3)CC2)[C@@H]1N [Compound 358]
22,1000 to 10000 nM,C[C@@H]1OCC2(CCN(c3cnc4c(N5CCc6cccc(C#N)c6C5)n[nH]c4n3)CC2)[C@@H]1N [Compound 359]
23,< 1000 nM,CCC(=O)N1CCN(c2n[nH]c3nc(N4CCC5(CC4)CO[C@@H](C)[C@H]5N)cnc23)c2ccccc21 [Compound 360]

row,IC50,SMILES
1,< 1000 nM,Cc1csc(-c2ccc3c(n2)CCCN3c2n[nH]c3nc(N4CCC5(CC4)CO[C@@H](C)[C@H]5N)cnc23)n1 [Compound 361]
2,< 1000 nM,"CNC(=O)c1ccc2c(n1)[C@@H](C)CCN2c1n[nH]c2nc(N3CCC4(CC3)CO[C@@H](C)[C@H]4N)cnc12 [Compound 362, (8S)-5-{6-[(3S,4S)-4-amino-3-methyl-2-oxa-8-azaspiro[4.5]decan-8-yl]-1H-pyrazolo[3,4-b]pyrazin-3-yl}-N,8-dimethyl-5,6,7,8-tetrahydro-1,5-naphthyridine-2-carboxamide]"
3,< 1000 nM,"CNC(=O)c1ccc2c(n1)[C@H](C)CCN2c1n[nH]c2nc(N3CCC4(CC3)CO[C@@H](C)[C@H]4N)cnc12 [Compound 363, (8R)-5-{6-[(3S,4S)-4-amino-3-methyl-2-oxa-8-azaspiro[4.5]decan-8-yl]-1H-pyrazolo[3,4-b]pyrazin-3-yl}-N,8-dimethyl-5,6,7,8-tetrahydro-1,5-naphthyridine-2-carboxamide]"
4,< 1000 nM,"C[C@@H]1OCC2(CCN(c3cnc4c(N5CC[C@H](C)c6nc(C(=O)N(C)C)ccc65)n[nH]c4n3)CC2)[C@@H]1N [Compound 364, (8S)-5-{6-[(3S,4S)-4-amino-3-methyl-2-oxa-8-azaspiro[4.5]decan-8-yl]-1H-pyrazolo[3,4-b]pyrazin-3-yl}-N,N,8-trimethyl-5,6,7,8-tetrahydro-1,5-naphthyridine-2-carboxamide]"
5,< 1000 nM,C[C@@H]1OCC2(CCN(c3cnc4c(N5CCCc6cc(-c7cnn(C)c7)ccc65)n[nH]c4n3)CC2)[C@@H]1N [Compound 365]
6,< 1000 nM,"CNC(=O)c1ccc2c(c1)N(C)CCN2c1n[nH]c2nc(N3CCC4(CC3)CO[C@@H](C)[C@H]4N)cnc12 [Compound 366, 1-{6-[(3S,4S)-4-amino-3-methyl-2-oxa-8-azaspiro[4.5]decan-8-yl]-1H-pyrazolo[3,4-b]pyrazin-3-yl}-N,4-dimethyl-1,2,3,4-tetrahydroquinoxaline-6-carboxamide]"
7,< 1000 nM,C[C@@H]1OCC2(CCN(c3cnc4c(N5CCN(C)c6c5cccc6S(C)(=O)=O)n[nH]c4n3)CC2)[C@@H]1N [Compound 367]
8,< 1000 nM,CCS(=O)(=O)c1cccc2c1CCCN2c1n[nH]c2nc(N3CCC4(CC3)CO[C@@H](C)[C@H]4N)cnc12 [Compound 368]
9,< 1000 nM,C[C@@H]1OCC2(CCN(c3cnc4c(N5CCCc6c5cccc6P(C)(C)=O)n[nH]c4n3)CC2)[C@@H]1N [Compound 369]
10,< 1000 nM,"C[C@@H]1OCC2(CCN(c3cnc4c(N5CCCc6nc(-c7cnn(C8COC8)c7)ccc65)n[nH]c4n3)CC2)[C@@H]1N [Compound 372, (3S,4S)-3-methyl-8-(3-{6-[1-(oxetan-3-yl)-1H-pyrazol-4-yl]-1,2,3,4-tetrahydro-1,5-naphthyridin-1-yl}-1H-pyrazolo[3,4-b]pyrazin-6-yl)-2-oxa-8-azaspiro[4.5]decan-4-amine]"
11,< 1000 nM,C[C@@H]1OCC2(CCN(c3cnc4c(N5CCCc6c5cccc6[N+](=O)[O-])n[nH]c4n3)CC2)[C@@H]1N [Compound 373]
12,< 1000 nM,C[C@@H]1OCC2(CCN(c3cnc4c(N5CCCc6c5cccc6N(C)S(C)(=O)=O)n[nH]c4n3)CC2)[C@@H]1N [Compound 374]
13,< 1000 nM,"C[C@@H]1OCC2(CCN(c3cnc4c(N5CCCc6c(N)cccc65)n[nH]c4n3)CC2)[C@@H]1N [Compound 375, (3S,4S)-8-[3-(5-amino-1,2,3,4-tetrahydroquinolin-1-yl)-1H-pyrazolo[3,4-b]pyrazin-6-yl]-3-methyl-2-oxa-8-azaspiro[4.5]decan-4-amine]"
14,< 1000 nM,"CC(=O)Nc1cccc2c1CCCN2c1n[nH]c2nc(N3CCC4(CC3)CO[C@@H](C)[C@H]4N)cnc12 [Compound 376, N-(1-{6-[(3S,4S)-4-amino-3-methyl-2-oxa-8-azaspiro[4.5]decan-8-yl]-1H-pyrazolo[3,4-b]pyrazin-3-yl}-1,2,3,4-tetrahydroquinolin-5-yl)acetamide]"
15,< 1000 nM,C[C@@H]1OCC2(CCN(c3cnc4c(N5CCN(C)c6nc(Cl)ccc65)n[nH]c4n3)CC2)[C@@H]1N [Compound 377]
16,< 1000 nM,C[C@@H]1OCC2(CCN(c3cnc4c(N5CCCc6nc(O)ccc65)n[nH]c4n3)CC2)[C@@H]1N [Compound 378]
17,< 1000 nM,Cc1cccc2c1N(C1CC1)CCN2c1n[nH]c2nc(N3CCC4(CC3)CO[C@@H](C)[C@H]4N)cnc12 [Compound 379]
18,< 1000 nM,"C[C@@H]1OCC2(CCN(c3cnc4c(N5CCCc6nc(-c7cnoc7)ccc65)n[nH]c4n3)CC2)[C@@H]1N [Compound 380, (3S,4S)-3-methyl-8-{3-[6-(1,2-oxazol-4-yl)-1,2,3,4-tetrahydro-1,5-naphthyridin-1-yl]-1H-pyrazolo[3,4-b]pyrazin-6-yl}-2-oxa-8-azaspiro[4.5]decan-4-amine]"
19,< 1000 nM,Cc1cnc(-c2ccc3c(n2)CCCN3c2n[nH]c3nc(N4CCC5(CC4)CO[C@@H](C)[C@H]5N)cnc23)s1 [Compound 382]
20,< 1000 nM,C[C@@H]1OCC2(CCN(c3cnc4c(N5CCN(C)c6nc(C#N)ccc65)n[nH]c4n3)CC2)[C@@H]1N [Compound 383]
21,< 1000 nM,Cc1cccc2c1N(C)CCN2c1n[nH]c2nc(N3CCC4(CC3)CO[C@@H](C)[C@H]4N)cnc12 [Compound 384]
22,≥ 10000 nM,CC1Cc2ccccc2C(=O)N1c1n[nH]c2nc(N3CCC4(CC3)CO[C@@H](C)[C@H]4N)cnc12 (stereo partly drawn) [Compound 385]
